Test results: ChEMBL document CHEMBL3045223, “Synthesis, nematicidal and antimicrobial properties of Bis-[4-methoxy-3-[3-(4-fluorophenyl)-6-(4-methylphenyl)-2(aryl)-tetrahydro-2H-pyrazolo[3,4-d]thiazol-5-yl]phenyl]methanes” (2009)
Converted amounts (≈) assume the structure as drawn. The source made the active and inactive calls. The calls are words filed in the database; no cut-off is given here.

Experiments:
Assay type in all cases: functional
[1] = tested on: Klebsiella aerogenes; assay: Antibacterial activity against Enterobacter aerogenes MTCC 39 assessed as growth arrest at 37 degC for 24 hr; settings: MTCC 39, 24 h
[2] = tested on: Staphylococcus aureus; assay: Antibacterial activity against Staphylococcus aureus MTCC 96 assessed as inhibition zones at 300 ug/disc at 37 degC for 24 hr; settings: MTCC 96, 24 h, read-out: IZ
[3] = tested on: Chromobacterium violaceum; assay: Antibacterial activity against Chromobacterium violaceum MTCC 2656 assessed as growth arrest at 37 degC for 24 hr; settings: MTCC 2656, 24 h
[4] = tested on: Pseudomonas aeruginosa; assay: Antibacterial activity against Pseudomonas aeruginosa MTCC 741 assessed as growth arrest at 37 degC for 24 hr; settings: MTCC 741, 24 h
[5] = tested on: Aspergillus fumigatus; assay: Antifungal activity against Aspergillus fumigatus HIC 6094 assessed as growth inhibition at 37 degC for 48 hr; settings: HIC 6094, 48 h
[6] = tested on: Trichophyton mentagrophytes; assay: Antifungal activity against Trichophyton mentagrophytes IFO 40996 assessed as growth inhibition at 300 ug/disc at 37 degC for 48 hr; settings: for zone of inhibition at 300 µg/disc: IFO 40996, 48 h, read-out: IZ
[7] = tested on: Lysinibacillus sphaericus; assay: Antibacterial activity against Lysinibacillus sphaericus MTCC 11 assessed as growth arrest at 37 degC for 24 hr; settings: MTCC 11, 24 h
[8] = tested on: Ditylenchus myceliophagus; assay: Nematicidal activity against Ditylenchus myceliophagus assessed as immobility; settings: read-out: LD50 (the source's name)
[9] = tested on: Chromobacterium violaceum; assay: Antibacterial activity against Chromobacterium violaceum MTCC 2656 assessed as inhibition zones at 300 ug/disk at 37 degC for 24 hr; settings: MTCC 2656, 24 h, read-out: IZ
[10] = tested on: Trichophyton rubrum; assay: Antifungal activity against Trichophyton rubrum IFO 9185 assessed as growth inhibition at 300 ug/disk at 37 degC for 48 hr; settings: for zone of inhibition at 300 µg/disc: IFO 9185, 48 h, read-out: IZ
[11] = tested on: Bacillus subtilis; assay: Antibacterial activity against Bacillus subtilis MTCC 441 assessed as growth arrest at 37 degC for 24 hr; settings: MTCC 441, 24 h
[12] = tested on: Lysinibacillus sphaericus; assay: Antibacterial activity against Lysinibacillus sphaericus MTCC 11 assessed as inhibition zones at 300 ug/disk at 37 degC for 24 hr; settings: MTCC 11, 24 h, read-out: IZ
[13] = tested on: Aspergillus fumigatus; assay: Antifungal activity against Aspergillus fumigatus HIC 6094 assessed as growth inhibition at 300 ug/disc at 37 degC for 48 hr; settings: for zone of inhibition at 300 µg/disc: HIC 6094, 48 h, read-out: IZ
[14] = tested on: Pseudomonas aeruginosa; assay: Antibacterial activity against Pseudomonas aeruginosa MTCC 741 assessed as inhibition zones at 300 ug/disk at 37 degC for 24 hr; settings: MTCC 741, 24 h, read-out: IZ
[15] = tested on: Bacillus subtilis; assay: Antibacterial activity against Bacillus subtilis MTCC 441 assessed as inhibition zones at 300 ug/disk at 37 degC for 24 hr; settings: MTCC 441, 24 h, read-out: IZ
[16] = tested on: Klebsiella aerogenes; assay: Antibacterial activity against Enterobacter aerogenes MTCC 39 assessed as inhibition zones at 300 ug/disk at 37 degC for 24 hr; settings: MTCC 39, 24 h, read-out: IZ
[17] = tested on: Staphylococcus aureus; assay: Antibacterial activity against Staphylococcus aureus MTCC 96 assessed as growth arrest at 37 degC for 24 hr; settings: MTCC 96, 24 h
[18] = tested on: Trichophyton rubrum; assay: Antifungal activity against Trichophyton rubrum IFO 9185 assessed as growth inhibition at 37 degC for 48 hr; settings: IFO 9185, 48 h
[19] = tested on: Caenorhabditis elegans; assay: Nematicidal activity against Caenorhabditis elegans assessed as immobility; settings: read-out: LD50 (the source's name)
[20] = tested on: Candida albicans; assay: Antifungal activity against Candida albicans ATCC 10231 assessed as growth inhibition at 37 degC for 48 hr
[21] = tested on: Trichophyton mentagrophytes; assay: Antifungal activity against Trichophyton mentagrophytes IFO 40996 assessed as growth inhibition at 37 degC for 48 hr; settings: IFO 40996, 48 h
[22] = tested on: Candida albicans; assay: Antifungal activity against Candida albicans ATCC 10231 assessed as growth inhibition at 300 ug/disk at 37 degC for 48 hr; settings: for zone of inhibition at 300 µg/disc: ATCC 10231, 48 h, read-out: IZ

| Compound | MBC [1] | MIC [1] | zone of inhibition at 300 µg/disc [2] | MBC [3] | MIC [3] | MBC [4] | MIC [4] | MBC [5] | MIC [5] | MBC [7] | MIC [7] | LC50 [8] | zone of inhibition at 300 µg/disc [9] | MBC [11] | MIC [11] | zone of inhibition at 300 µg/disc [12] | zone of inhibition at 300 µg/disc [14] | zone of inhibition at 300 µg/disc [15] | zone of inhibition at 300 µg/disc [16] | MBC [17] | also measured |
| --- | --- | --- | --- | --- | --- | --- | --- | --- | --- | --- | --- | --- | --- | --- | --- | --- | --- | --- | --- | --- | --- |
| COc1ccc(Cc2ccc(OC)c(C3SC4C(=NN(C)C4c4ccc(F)cc4)N3c3ccc([N+](=O)[O-])cc3)c2)cc1C1SC2C(=NN(C)C2c2ccc(F)cc2)N1c1ccc([N+](=O)[O-])cc1 (stereo not drawn) | 25 µg/mL (≈ 26.6 µM) | 12.5 µg/mL (≈ 13.3 µM) | 21 mm | 12.5 µg/mL (≈ 13.3 µM) | 12.5 µg/mL (≈ 13.3 µM) | 12.5 µg/mL (≈ 13.3 µM) | 12.5 µg/mL (≈ 13.3 µM) | 25 µg/mL (≈ 26.6 µM) | 12.5 µg/mL (≈ 13.3 µM) | 25 µg/mL (≈ 26.6 µM) | 12.5 µg/mL (≈ 13.3 µM) | 180 µg/mL (≈ 191 µM) | 18 mm | 6.25 µg/mL (≈ 6.64 µM) | 6.25 µg/mL (≈ 6.64 µM) | 20 mm | 12 mm | 16 mm | 19 mm | 25 µg/mL (≈ 26.6 µM) | zone of inhibition at 300 µg/disc [6]: 14 mm; zone of inhibition at 300 µg/disc [10]: 15 mm; zone of inhibition at 300 µg/disc [13]: 14 mm; MIC [17]: 12.5 µg/mL (≈ 13.3 µM); MBC [18]: 25 µg/mL (≈ 26.6 µM); MIC [18]: 12.5 µg/mL (≈ 13.3 µM); LC50 [19]: 200 µg/mL (≈ 213 µM); MBC ([20]; ATCC 10231, 48 h): 25 µg/mL (≈ 26.6 µM); MIC ([20]; ATCC 10231, 48 h): 12.5 µg/mL (≈ 13.3 µM); MBC [21]: 25 µg/mL (≈ 26.6 µM); MIC [21]: 12.5 µg/mL (≈ 13.3 µM); zone of inhibition at 300 µg/disc [22]: 21 mm |
| COc1ccc(Cc2ccc(OC)c(C3SC4C(=NN(c5ccc(Cl)cc5)C4c4ccc(F)cc4)N3c3ccc(Cl)cc3)c2)cc1C1SC2C(=NN(c3ccc(Cl)cc3)C2c2ccc(F)cc2)N1c1ccc(Cl)cc1 (stereo not drawn) | 12.5 µg/mL (≈ 11.2 µM) | 12.5 µg/mL (≈ 11.2 µM) | 22 mm | 50 µg/mL (≈ 44.9 µM) | 25 µg/mL (≈ 22.5 µM) | 50 µg/mL (≈ 44.9 µM) | 50 µg/mL (≈ 44.9 µM) | 25 µg/mL (≈ 22.5 µM) | 25 µg/mL (≈ 22.5 µM) | 25 µg/mL (≈ 22.5 µM) | 6.25 µg/mL (≈ 5.62 µM) | 290 µg/mL (≈ 261 µM) | 18 mm | 25 µg/mL (≈ 22.5 µM) | 12.5 µg/mL (≈ 11.2 µM) | 19 mm | 18 mm | 11 mm | 19 mm | 50 µg/mL (≈ 44.9 µM) | inhibition zone (IZ) [6]: inactive; zone of inhibition at 300 µg/disc [10]: 15 mm; inhibition zone (IZ) [13]: inactive; MIC [17]: 12.5 µg/mL (≈ 11.2 µM); MBC [18]: 12.5 µg/mL (≈ 11.2 µM); MIC [18]: 12.5 µg/mL (≈ 11.2 µM); LC50 [19]: 380 µg/mL (≈ 341 µM); MBC ([20]; ATCC 10231, 48 h): 12.5 µg/mL (≈ 11.2 µM); MIC ([20]; ATCC 10231, 48 h): 12.5 µg/mL (≈ 11.2 µM); MBC [21]: 50 µg/mL (≈ 44.9 µM); MIC [21]: 25 µg/mL (≈ 22.5 µM); inhibition zone (IZ) [22]: inactive |
| COc1ccc(Cc2ccc(OC)c(C3SC4C(=NN(c5ccccc5)C4c4ccc(F)cc4)N3c3ccc([N+](=O)[O-])cc3)c2)cc1C1SC2C(=NN(c3ccccc3)C2c2ccc(F)cc2)N1c1ccc([N+](=O)[O-])cc1 (stereo not drawn) | 25 µg/mL (≈ 23.5 µM) | 12.5 µg/mL (≈ 11.7 µM) | 20 mm | 50 µg/mL (≈ 46.9 µM) | 25 µg/mL (≈ 23.5 µM) | 25 µg/mL (≈ 23.5 µM) | 6.25 µg/mL (≈ 5.87 µM) | 50 µg/mL (≈ 46.9 µM) | 12.5 µg/mL (≈ 11.7 µM) | 12.5 µg/mL (≈ 11.7 µM) | 6.25 µg/mL (≈ 5.87 µM) | 800 µg/mL (≈ 751 µM) | 11 mm | 25 µg/mL (≈ 23.5 µM) | 12.5 µg/mL (≈ 11.7 µM) | 22 mm | 11 mm | 21 mm | 24 mm | 25 µg/mL (≈ 23.5 µM) | zone of inhibition at 300 µg/disc [6]: 9 mm; zone of inhibition at 300 µg/disc [10]: 10 mm; zone of inhibition at 300 µg/disc [13]: 11 mm; MIC [17]: 6.25 µg/mL (≈ 5.87 µM); MBC [18]: 25 µg/mL (≈ 23.5 µM); MIC [18]: 6.25 µg/mL (≈ 5.87 µM); LC50 [19]: 620 µg/mL (≈ 582 µM); MBC ([20]; ATCC 10231, 48 h): 25 µg/mL (≈ 23.5 µM); MIC ([20]; ATCC 10231, 48 h): 12.5 µg/mL (≈ 11.7 µM); MBC [21]: 12.5 µg/mL (≈ 11.7 µM); MIC [21]: 12.5 µg/mL (≈ 11.7 µM); zone of inhibition at 300 µg/disc [22]: 8 mm |
| COc1ccc(Cc2ccc(OC)c(C3SC4C(=NN(c5ccccc5)C4c4ccc(F)cc4)N3c3ccc(C)cc3)c2)cc1C1SC2C(=NN(c3ccccc3)C2c2ccc(F)cc2)N1c1ccc(C)cc1 (stereo not drawn) | 25 µg/mL (≈ 24.9 µM) | 12.5 µg/mL (≈ 12.5 µM) | 27 mm | 25 µg/mL (≈ 24.9 µM) | 25 µg/mL (≈ 24.9 µM) | 50 µg/mL (≈ 49.8 µM) | 12.5 µg/mL (≈ 12.5 µM) | 25 µg/mL (≈ 24.9 µM) | 25 µg/mL (≈ 24.9 µM) | 50 µg/mL (≈ 49.8 µM) | 25 µg/mL (≈ 24.9 µM) | 850 µg/mL (≈ 847 µM) | 19 mm | 25 µg/mL (≈ 24.9 µM) | 12.5 µg/mL (≈ 12.5 µM) | 16 mm | 18 mm | 14 mm | 17 mm | 12.5 µg/mL (≈ 12.5 µM) | zone of inhibition at 300 µg/disc [6]: 9 mm; inhibition zone (IZ) [10]: inactive; zone of inhibition at 300 µg/disc [13]: 10 mm; MIC [17]: 12.5 µg/mL (≈ 12.5 µM); MBC [18]: 50 µg/mL (≈ 49.8 µM); MIC [18]: 25 µg/mL (≈ 24.9 µM); LC50 [19]: 670 µg/mL (≈ 668 µM); MBC [20]: inactive; MIC [20]: inactive; MBC [21]: 25 µg/mL (≈ 24.9 µM); MIC [21]: 25 µg/mL (≈ 24.9 µM); zone of inhibition at 300 µg/disc [22]: 11 mm |
